Experimental data published in ChEMBL document CHEMBL1201862, “PubChem BioAssay data set” (2004).
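Exposure lasted 48 hours, with cells grown in 96-well plates and compounds tested at five concentrations. GI50 = concentration required for 50% inhibition of growth.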 Activity calls are given as the source filed them. No stated cut-off is given here; in the data, active = GI50 up to about 1.1 µM and inactive = higher.

How the values were obtained:
Experiment in all cases: NCI tumour cell line growth inhibition, 48 h
CAKI-1 = test system: CAKI-1
COLO 205 = test system: COLO 205
HL-60 = test system: HL-60
Hs-578T = test system: Hs-578T
KM12 = test system: KM12
MDA-N = test system: MDA-N
NCI-H460 = test system: NCI-H460
PC-3 = test system: PC-3
RPMI-8226 = test system: RPMI-8226
SF-268 = test system: SF-268
SF-539 = test system: SF-539
SW-620 = test system: SW-620
U-251 = test system: U-251
UACC-257 = test system: UACC-257
UACC-62 = test system: UACC-62
HCT-116 = test system: HCT-116
LOX IMVI = test system: LOX IMVI

Compound	GI50 (CAKI-1)	GI50 (COLO 205)	GI50 (HL-60)	GI50 (Hs-578T)	GI50 (KM12)	GI50 (MDA-N)	GI50 (NCI-H460)	GI50 (PC-3)	GI50 (RPMI-8226)	GI50 (SF-268)	GI50 (SF-539)	GI50 (SW-620)	GI50 (U-251)	GI50 (UACC-257)	GI50 (UACC-62)	GI50 (HCT-116)	GI50 (LOX IMVI)
O=C1CCC[C@H]2O[C@@H](COC(=O)c3ccccc3)C[C@H]2O1	> 100 µM (inactive)	> 100 µM (inactive)	> 100 µM (inactive)	> 100 µM (inactive)	> 100 µM (inactive)	> 100 µM (inactive)	> 100 µM (inactive)	> 100 µM (inactive)	> 100 µM (inactive)	> 100 µM (inactive)	> 100 µM (inactive)	> 100 µM (inactive)	> 100 µM (inactive)	> 100 µM (inactive)	> 100 µM (inactive)	–	–
O=C(/C=C/c1ccc(-c2ccccc2)cc1)NCc1ccc(C(=O)NCCc2c[nH]c3ccccc23)cc1	16.3 µM (inactive)	> 100 µM (inactive)	–	38.5 µM (inactive)	31 µM (inactive)	49.2 µM (inactive)	31.7 µM (inactive)	23.5 µM (inactive)	60.8 µM (inactive)	39.7 µM (inactive)	43.5 µM (inactive)	34 µM (inactive)	11.9 µM (inactive)	67.3 µM (inactive)	29 µM (inactive)	46.9 µM (inactive)	48.9 µM (inactive)
CCCSc1cc(Cl)c(C)cc1S(=O)(=O)n1ccnc1OCCCN(C)C	> 100 µM (inactive)	> 100 µM (inactive)	–	> 100 µM (inactive)	> 100 µM (inactive)	> 100 µM (inactive)	> 100 µM (inactive)	> 100 µM (inactive)	–	> 100 µM (inactive)	> 100 µM (inactive)	> 100 µM (inactive)	> 100 µM (inactive)	> 100 µM (inactive)	> 100 µM (inactive)	> 100 µM (inactive)	> 100 µM (inactive)
O=C(CNC(=O)OCc1ccccc1)NCCCCC(NC(=O)OCc1ccccc1)C(=O)NC(CCCCNC(=O)CNC(=O)OCc1ccccc1)C(=O)OCc1ccccc1 (stereo not given)	> 62.5 µM (inactive)	–	> 62.5 µM (inactive)	–	–	–	> 62.5 µM (inactive)	> 62.5 µM (inactive)	> 62.5 µM (inactive)	> 62.5 µM (inactive)	–	> 62.5 µM (inactive)	> 62.5 µM (inactive)	> 62.5 µM (inactive)	> 62.5 µM (inactive)	> 62.5 µM (inactive)	> 62.5 µM (inactive)
CC(=O)C1(Cc2cccc3ccccc23)S(=O)(=O)OCCOS1(=O)=O	15.9 µM (inactive)	17 µM (inactive)	15.2 µM (inactive)	–	15.4 µM (inactive)	11.8 µM (inactive)	17.3 µM (inactive)	14.2 µM (inactive)	19.5 µM (inactive)	19.9 µM (inactive)	17.9 µM (inactive)	18.3 µM (inactive)	16.7 µM (inactive)	4.11 µM (inactive)	14.6 µM (inactive)	19.6 µM (inactive)	12.1 µM (inactive)
Cc1ccc(C(=O)N/N=C(\N=N\c2ccccc2)c2ccc(N(CCC#N)CCC#N)cc2C)cc1	64.6 µM (inactive)	> 100 µM (inactive)	> 100 µM (inactive)	28.2 µM (inactive)	> 100 µM (inactive)	–	> 100 µM (inactive)	67.9 µM (inactive)	> 100 µM (inactive)	24.2 µM (inactive)	18.3 µM (inactive)	> 100 µM (inactive)	92.5 µM (inactive)	82.4 µM (inactive)	38.8 µM (inactive)	–	99.1 µM (inactive)
N#C/C(=C/C=C/c1ccco1)C(N)=O	> 10 µM (inactive)	> 10 µM (inactive)	–	> 10 µM (inactive)	> 10 µM (inactive)	> 10 µM (inactive)	> 10 µM (inactive)	> 10 µM (inactive)	–	> 10 µM (inactive)	> 10 µM (inactive)	> 10 µM (inactive)	> 10 µM (inactive)	–	–	–	> 10 µM (inactive)
COc1ccc(/C=C2/CSCC3=C2N=C(S)NC3c2ccc(OC)c(OC)c2OC)c(OC)c1OC (stereo not given)	36.6 µM (inactive)	19.9 µM (inactive)	6.34 µM (inactive)	> 100 µM (inactive)	12.1 µM (inactive)	–	27.6 µM (inactive)	12.1 µM (inactive)	3.7 µM (inactive)	16.8 µM (inactive)	16.8 µM (inactive)	27.7 µM (inactive)	7.48 µM (inactive)	14.8 µM (inactive)	16.8 µM (inactive)	8.09 µM (inactive)	15.4 µM (inactive)
C[n+]1cn(-c2ccc([N+](=O)[O-])cn2)c2ccccc21	> 100 µM (inactive)	> 100 µM (inactive)	> 100 µM (inactive)	> 100 µM (inactive)	> 100 µM (inactive)	–	> 100 µM (inactive)	> 100 µM (inactive)	> 100 µM (inactive)	> 100 µM (inactive)	> 100 µM (inactive)	> 100 µM (inactive)	> 100 µM (inactive)	> 100 µM (inactive)	> 100 µM (inactive)	> 100 µM (inactive)	> 100 µM (inactive)
Cn1c(=N)n[n+]([O-])c2ccccc21	2.31 µM (inactive)	2.33 µM (inactive)	2.17 µM (inactive)	–	19 µM (inactive)	1.66 µM (inactive)	–	6.28 µM (inactive)	–	–	1.5 µM (inactive)	2.74 µM (inactive)	7.69 µM (inactive)	1.94 µM (inactive)	1.75 µM (inactive)	4.14 µM (inactive)	2.59 µM (inactive)
CCN(CC)CCOC(NC(C)=O)(c1ccccc1)c1ccccc1	–	> 100 µM (inactive)	> 100 µM (inactive)	> 100 µM (inactive)	> 100 µM (inactive)	–	> 100 µM (inactive)	–	> 100 µM (inactive)	> 100 µM (inactive)	> 100 µM (inactive)	> 100 µM (inactive)	> 100 µM (inactive)	> 100 µM (inactive)	> 100 µM (inactive)	> 100 µM (inactive)	–
COC(=O)c1c2c(cc3c1CC1(C3)Cc3cc4c(c(C(=O)OC)c3C1)CCC4)CCC2	–	> 100 µM (inactive)	22.1 µM (inactive)	65.9 µM (inactive)	> 100 µM (inactive)	> 100 µM (inactive)	–	> 100 µM (inactive)	> 100 µM (inactive)	–	> 100 µM (inactive)	–	> 100 µM (inactive)	> 100 µM (inactive)	55.8 µM (inactive)	> 100 µM (inactive)	> 100 µM (inactive)
Nc1nc(Cl)c(N)c(NC23CC4CC(CC(C4)C2)C3)n1	1.93 µM (inactive)	1.58 µM (inactive)	–	4.4 µM (inactive)	1.73 µM (inactive)	1.58 µM (inactive)	3.07 µM (inactive)	1.36 µM (inactive)	2.25 µM (inactive)	2.57 µM (inactive)	2.16 µM (inactive)	1.51 µM (inactive)	1.66 µM (inactive)	2.36 µM (inactive)	1.63 µM (inactive)	1.58 µM (inactive)	3.87 µM (inactive)
O=C(CSCC(=O)N/N=C/c1ccncc1)N/N=C/c1ccncc1	> 100 µM (inactive)	–	> 100 µM (inactive)	> 100 µM (inactive)	> 100 µM (inactive)	–	> 100 µM (inactive)	> 100 µM (inactive)	> 100 µM (inactive)	> 100 µM (inactive)	> 100 µM (inactive)	> 100 µM (inactive)	> 100 µM (inactive)	> 100 µM (inactive)	> 100 µM (inactive)	> 100 µM (inactive)	> 100 µM (inactive)
CC(=O)OC[C@@]12Cc3ccc(C)c(O)c3[C@]1(C)[C@@H](OC(C)=O)[C@]1(O)[C@H]([C@@H](OC(=O)c3ccccc3)[C@@H](C)[C@H]1OC(C)=O)[C@H]2OC(C)=O	> 50 µM (inactive)	> 50 µM (inactive)	44.9 µM (inactive)	> 50 µM (inactive)	> 50 µM (inactive)	–	> 50 µM (inactive)	> 50 µM (inactive)	–	> 50 µM (inactive)	> 50 µM (inactive)	> 50 µM (inactive)	> 50 µM (inactive)	> 50 µM (inactive)	> 50 µM (inactive)	> 50 µM (inactive)	> 50 µM (inactive)
CC1(C)C=Cc2c(cc3oc4ccc5c(c4c(=O)c3c2O)C=CC(C)(C)O5)O1	> 100 µM (inactive)	> 100 µM (inactive)	–	> 100 µM (inactive)	> 100 µM (inactive)	> 100 µM (inactive)	–	> 100 µM (inactive)	> 100 µM (inactive)	> 100 µM (inactive)	> 100 µM (inactive)	> 100 µM (inactive)	> 100 µM (inactive)	> 100 µM (inactive)	> 100 µM (inactive)	> 100 µM (inactive)	> 100 µM (inactive)
CC(=O)NNc1nc(C)c(C(/C=C/c2ccc([N+](=O)[O-])cc2)=N/NC(N)=O)s1	> 100 µM (inactive)	> 100 µM (inactive)	–	> 100 µM (inactive)	> 100 µM (inactive)	> 100 µM (inactive)	> 100 µM (inactive)	> 100 µM (inactive)	> 100 µM (inactive)	> 100 µM (inactive)	> 100 µM (inactive)	> 100 µM (inactive)	> 100 µM (inactive)	> 100 µM (inactive)	> 100 µM (inactive)	> 100 µM (inactive)	> 100 µM (inactive)
COc1cc(OCCN(C)C)c2[nH]c(C(=O)N3CC(CCl)c4ccc(N)cc43)cc2c1 (stereo not given)	0.022 µM (active)	0.0395 µM (active)	–	0.361 µM (active)	0.0324 µM (active)	0.0643 µM (active)	0.0147 µM (active)	0.0241 µM (active)	0.0358 µM (active)	0.0264 µM (active)	0.0748 µM (active)	0.0441 µM (active)	0.0432 µM (active)	0.0546 µM (active)	0.0404 µM (active)	0.0238 µM (active)	0.021 µM (active)
